Assay results as given in US12390449B2, “Substituted 2-aminobenzimidazoles analogs as antibiofilm agents” (priority 2018, dated 2025).
Where a name gives a salt, the structure may show the parent alone. Read-outs that look alike come from different tables or passages of the source.

Test system: Salmonella typhimurium ATCC14028 Biofilms
Test: Inhibitory effect of test compounds on Salmonella typhimurium ATCC14028 biofilms (crystal violet, 96-well)
Assay type: cell-based
Conditions: for antibiofilm activity (in words): compared with parent compound 1
Method: Procedure to Determine the Inhibitory Effect of Test Compounds on Salmonella typhimurium ATCC14028 Biofilms: […] Stock solutions of predetermined concentrations of the test compounds were then made in 1 mL of bacterial culture. […] Sample plates were then incubated for 24 h at 30° C. After incubation, the medium was discarded from the wells and the plates were washed thoroughly with water. Plates were then stained with 110 μL of 0.1% solution of crystal violet (CV) and then incubated at ambient temperature for 30 min. Plates were washed with water again and the remaining stain was solubilized with 200 μL of 95% ethanol. A sample of 125 μL of solubilized CV stain from each well was transferred to the corresponding wells of a polystyrene microtiter dish. Biofilm inhibition was quantitated by measuring the OD540 of each well in which a negative control lane wherein no biofilm was formed served as a background and was subtracted out.

[1] = Salmonella enterica, 24 h, read-out: IC50 (μM), inhibition of biofilm formation, S. typhimurium ATCC14028, 24 h at 30° C., crystal violet OD540
[2] = read-out: IC50 (μM), inhibition of biofilm formation, S. typhimurium ATCC14028, 24 h at 30° C., crystal violet OD540
[3] = read-out: IC50 (μM), inhibition of biofilm formation, S. typhimurium ATCC14028, 24 h at 30° C., crystal violet OD540, hydrochloride

SMILES	IC50 [1] [µM]	other results
CCCCCc1ccc(C(=O)Nc2ccc3c(c2)nc(N)n3CCc2cnc[nH]2)cc1 [Compound 5j, N-(1-(2-(1H-Imidazol-5-yl)ethyl)-2-amino-1H-benzo[d]imidazol-5-yl)-4-pentylbenzamide dihydrochloride]	20 to 40	–
CCCCCCCC(=O)Nc1ccc2c(c1)nc(N)n2CCCc1ccccc1 [Compound 10q, N-(2-Amino-1-(3-phenylpropyl)-1H-benzo[d]imidazol-5-yl)octanamide hydrochloride]	> 40	–
CCCCCCc1ccc(C(=O)Nc2ccc3c(c2)nc(N)n3CCCc2ccccc2)cc1 [Compound 10l, N-(2-Amino-1-(3-phenylpropyl)-1H-benzo[d]imidazol-5-yl)-4-hexylbenzamide hydrochloride]	15 to 20	–
CCCCCc1ccc(C(=O)Nc2ccc3nc(N)n(C(C)C)c3c2)cc1 [Compound 9e, N-(2-Amino-1-isopropyl-1H-benzo[d]imidazol-6-yl)-4-pentylbenzamide hydrochloride]	20 to 40	–
CCCCCc1ccc(C(=O)Nc2ccc3c(c2)nc(N)n3CCc2ccccc2)cc1 [Compound 1, N-(2-Amino-1-phenethyl-1H-benzo[d]imidazol-5-yl)-4-pentylbenzamide hydrochloride]	13.1 ± 0.6	–
CCCCCCn1c(N)nc2cc(NC(=O)c3ccc(CCCCC)cc3)ccc21 [Compound 5c, N-(2-Amino-1-hexyl-1H-benzo[d]imidazol-5-yl)-4-pentylbenzamide hydrochloride]	10.8 ± 0.56	–
CCCCCc1ccc(C(=O)Nc2ccc3c(c2)nc(N)n3C2CCCCC2)cc1 [Compound 5h, N-(2-Amino-1-cyclohexyl-1H-benzo[d]imidazol-5-yl)-4-pentylbenzamide hydrochloride]	15 to 20	–
Nc1nc2cc(NC(=O)c3cc(Br)cc(Br)c3)ccc2n1CCCc1ccccc1 [Compound 10c, N-(2-Amino-1-(3-phenylpropyl)-1H-benzo[d]imidazol-5-yl)-3,5-dibromobenzamide hydrochloride]	< 7	IC50 (read-out: IC50 (μM), inhibition of biofilm formation, S. typhimurium ATCC14028, 24 h at 30° C., crystal violet OD540, listed as 15c, hydrochloride): 5.58 ± 0.21 µM
CCCCCCCCCC(=O)Nc1ccc2c(c1)nc(N)n2CCCc1ccccc1 [Compound 10h, N-(2-Amino-1-(3-phenylpropyl)-1H-benzo[d]imidazol-5-y0decanamide hydrochloride]	–	IC50 [2]: 10 to 15 µM
CCCCCc1ccc(C(=O)Nc2ccc3c(c2)nc(N)n3CC(C)C)cc1 [Compound 5d, N-(2-Amino-1-isbutyl-1H-benzo[d]imidazol-5-yl)-4-pentylbenzamide hydrochloride]	–	IC50 [2]: 10 to 15 µM
CCCCCCCCCCCCn1c(N)nc2cc(NC(=O)c3ccc(CCCCC)cc3)ccc21.Cl [Compound 5n, N-(2-Amino-1-dodecyl-1H-benzo[d]imidazol-5-yl)-4-pentylbenzamide hydrochloride]	> 50	antibiofilm activity (in words): reduced or completely abolished antibiofilm activity
CCCCCc1ccc(C(=O)Nc2ccc3c(c2)nc(N)n3C2CCCC2)cc1 [Compound 5g, N-(2-Amino-1-cyclopentyl-1H-benzo[d]imidazol-5-yl)-4-pentylbenzamide hydrochloride]	15 to 20	–
CCCCCCCCc1ccc(C(=O)Nc2ccc3c(c2)nc(N)n3CCCc2ccccc2)cc1 [Compound 10r, N-(2-Amino-1-(3-phenylpropyl)-1H-benzo[d]imidazol-5-yl)-4-octylbenzamide hydrochloride]	> 40	IC50 [3]: > 50 µM
CCCCCc1ccc(C(=O)Nc2ccc3c(c2)nc(N)n3CCc2c[nH]c3ccccc23)cc1 [Compound 5e, N-(1-(2-(1H-Indol-3-yl)ethyl)-2-amino-1H-benzo[d]imidazol-5-yl)-4-pentylbenzamide hydrochloride]	10 to 15	–
CCCCCCCCCCCC(=O)Nc1ccc2c(c1)nc(N)n2CCCc1ccccc1 [Compound 10s, N-(2-Amino-1-(3-phenylpropyl)-1H-benzo[d]imidazol-5-yhdodecanamide hydrochloride]	–	IC50 [3]: > 50 µM
CCCCCCn1c(N)nc2ccc(NC(=O)c3ccc(CCCCC)cc3)cc21 [Compound 9b, N-(2-Amino-1-hexyl-1H-benzo[d]imidazol-6-yl)-4-pentylbenzamide hydrochloride]	10 to 15	–
CCCCCCCCCCCCCC(=O)Nc1ccc2c(c1)nc(N)n2CCCc1ccccc1 [Compound 10t, N-(2-Amino-1-(3-phenylpropyl)-1H-benzo[d]imidazol-5-yhtetradecanamide hydrochloride]	–	IC50 [3]: > 50 µM
CCCCCc1ccc(C(=O)Nc2ccc3c(c2)nc(N)n3C)cc1.Cl [Compound 5l, N-(2-Amino-1-methyl-1H-benzo[d]imidazol-5-yl)-4-pentylbenzamide hydrochloride]	> 40	antibiofilm activity (in words): reduced or completely abolished antibiofilm activity
CCCCCc1ccc(C(=O)Nc2ccc3[nH]c(N)nc3c2)cc1 [Compound 5o, N-(2-Amino-1H-benzo[d]imidazol-5-yl)-4-pentylbenzamide hydrochloride]	20 to 40	–
CCCCCCCCn1c(N)nc2cc(NC(=O)c3ccc(CCCCC)cc3)ccc21 [Compound 5a, N-(2-Amino-1-octyl-1H-benzo[d]imidazol-5-yl)-4-pentylbenzamide hydrochloride]	6.66 ± 0.32	–
CCCc1ccc(C(=O)Nc2ccc3c(c2)nc(N)n3CCCc2ccccc2)cc1 [Compound 10k, N-(2-Amino-1-(3-phenylpropyl)-1H-benzo[d]imidazol-5-yl)-4-propylbenzamide hydrochloride]	15 to 20	–
CCCCCCCCCCn1c(N)nc2cc(NC(=O)c3ccc(CCCCC)cc3)ccc21.Cl [Compound 5m, N-(2-Amino-1-decyl-1H-benzo[d]imidazol-5-yl)-4-pentylbenzamide hydrochloride]	> 50	antibiofilm activity (in words): reduced or completely abolished antibiofilm activity
CCCCCc1ccc(C(=O)Nc2ccc3nc(N)n(CC)c3c2)cc1 [Compound 9d, N-(2-Amino-1-ethyl-1H-benzo[d]imidazol-6-yl)-4-pentylbenzamide hydrochloride]	20 to 40	–
CCCCCc1ccc(C(=O)Nc2ccc3c(c2)nc(N)n3C(C)C)cc1.Cl [Compound 5k, N-(2-Amino-1-isopropyl-1H-benzo[d]imidazol-5-yl)-4-pentylbenzamide hydrochloride]	20 to 40	antibiofilm activity (in words): reduced or completely abolished antibiofilm activity
CCCCOc1ccc(C(=O)Nc2ccc3c(c2)nc(N)n3CCCc2ccccc2)cc1 [Compound 10j, N-(2-Amino-1-(3-phenylpropyl)-1H-benzo[d]imidazol-5-yl)-4-butoxybenzamide hydrochloride]	15 to 20	–
CCCCCCCCC(=O)Nc1ccc2c(c1)nc(N)n2CCCc1ccccc1 [Compound 10n, N-(2-Amino-1-(3-phenylpropyl)-1H-benzo[d]imidazol-5-yl)nonanamide hydrochloride]	15 to 20	–
CCCCCc1ccc(C(=O)Nc2ccc3nc(N)n(CCCC)c3c2)cc1 [Compound 9a, N-(2-Amino-1-butyl-1H-benzo[d]imidazol-6-yl)-4-pentylbenzamide hydrochloride]	10 to 15	–
CCCCCc1ccc(C(=O)Nc2ccc3c(c2)nc(N)n3CCCCc2ccccc2)cc1 [Compound 5b, N-(2-Amino-1-(4-phenylbutyl)-1H-benzo[d]imidazol-5-yl)-4-pentylbenzamide hydrochloride]	9.59 ± 0.23	–
CCCCc1ccc(C(=O)Nc2ccc3c(c2)nc(N)n3CCCc2ccccc2)cc1 [Compound 10f, N-(2-Amino-1-(3-phenylpropyl)-1H-benzo[d]imidazol-5-yl)-4-butylbenzamide hydrochloride]	10 to 15	–
